{"source": "ChEMBL document CHEMBL1127417", "about": "“Multisubstrate inhibition of 4-hydroxybenzoate 3-monooxygenase” (J Med Chem, 1994)", "key": {"[1]": {"target": "T1, p-hydroxybenzoate hydroxylase (Pseudomonas fluorescens, UniProt P00438)", "T1 sequence (P00438 whole entry)": "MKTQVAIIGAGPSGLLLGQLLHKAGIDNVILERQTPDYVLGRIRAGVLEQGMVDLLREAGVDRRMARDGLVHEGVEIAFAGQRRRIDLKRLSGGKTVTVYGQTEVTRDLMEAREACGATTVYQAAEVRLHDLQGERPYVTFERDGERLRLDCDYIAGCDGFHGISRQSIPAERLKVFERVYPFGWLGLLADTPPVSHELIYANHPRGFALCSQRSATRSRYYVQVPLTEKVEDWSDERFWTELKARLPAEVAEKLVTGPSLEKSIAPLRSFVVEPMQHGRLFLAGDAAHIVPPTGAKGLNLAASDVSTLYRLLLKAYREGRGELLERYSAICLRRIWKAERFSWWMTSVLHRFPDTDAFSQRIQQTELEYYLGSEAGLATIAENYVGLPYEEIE", "experiment": "Binding affinity against p-hydroxybenzoate hydroxylase (PHBH) from Pseudomonas fluorescence competing with NADPH"}, "[2]": {"target": "T1, p-hydroxybenzoate hydroxylase", "experiment": "Binding affinity against p-hydroxybenzoate hydroxylase (PHBH) from Pseudomonas fluorescence competing with p-hydroxy benzoic acid"}, "[3]": {"target": "T1, p-hydroxybenzoate hydroxylase", "experiment": "Inhibitory concentration against p-hydroxybenzoate hydroxylase (PHBH) from Pseudomonas fluorescence"}}, "data": [{"smiles": "O=C(O)c1ccc(O)cc1OCc1ccccc1", "values": [{"measurement": "Ki", "setting": "[1]", "result": 0.069, "unit": "µM"}, {"measurement": "Ki", "setting": "[2]", "result": 0.059, "unit": "µM"}]}, {"smiles": "O=C(O)c1ccc(O)c(OCc2ccccc2)c1", "values": [{"measurement": "IC50", "setting": "[3]", "result": 100, "unit": "µM"}]}]}
